Experimental findings from patent publication US12679832B2, “Compounds and their uses as CD38 inhibitors” (Nanjing Immunophage Biotech Co., Ltd., priority 2021, dated 2026) are described below.

The target of this test is T1, hCD38 Enzyme (Homo sapiens, UniProt P28907).
T1 construct: purchased Sino Biological Inc 10818-H08H
T1 sequence (P28907 43-300 limits assumed): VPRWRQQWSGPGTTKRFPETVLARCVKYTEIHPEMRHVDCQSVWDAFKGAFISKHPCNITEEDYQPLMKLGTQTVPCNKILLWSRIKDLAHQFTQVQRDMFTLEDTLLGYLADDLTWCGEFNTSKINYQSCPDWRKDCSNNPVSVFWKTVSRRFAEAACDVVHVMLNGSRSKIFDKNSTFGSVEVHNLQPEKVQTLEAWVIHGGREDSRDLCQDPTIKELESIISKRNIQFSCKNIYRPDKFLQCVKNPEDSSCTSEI
Description: CD38 hydrolase enzymatic assay. The format is biochemical. To be noted: rhCD38, ε-NAD substrate, 25° C., point reading time 20 mins; read-out: hCD38 Enzyme inhibition IC50.

`O=C(Nc1cc(F)cc(N2CCNCC2)c1)c1cc(C(F)(F)F)nc(-n2ccnc2)n1` [compound 175, N-(3-fluoro-5-(piperazin-1-yl)phenyl)-2-(1H-imidazol-1-yl)-6-(trifluoromethyl) pyrimidine-4-carboxamide]: the IC50 is 68 nM.
Take `O=C(Nc1cc(F)cc(N2CCOCC2)c1)c1cc(C(F)(F)F)nc(-n2ccnc2)n1` [compound 176, N-(3-fluoro-5-morpholinophenyl)-2-(1H-imidazol-1-yl)-6-(trifluoromethyl) pyrimidine-4-carboxamide]: the IC50 came to 20 nM.
Take `O=C(Nc1cccc(N2CCOCC2)c1)c1cc(C(F)(F)F)nc(-n2ccnc2)n1` [compound 177, 2-(1H-imidazol-1-yl)-N-(3-morpholinophenyl)-6-(trifluoromethyl) pyrimidine-4-carboxamide]: the IC50 was found to be 38 nM.
Regarding `O=C(Nc1cc(F)cc(N2CC[C@H](O)C2)c1)c1cc(C(F)(F)F)nc(-n2ccnc2)n1` [compound 178, (S)-N-(3-fluoro-5-(3-hydroxypyrrolidin-1-yl)phenyl)-2-(1H-imidazol-1-yl)-6-(trifluoromethyl) pyrimidine-4-carboxamide], the IC50 stood at 17.3 nM.
In the case of `COC(C)(C)c1cc(F)cc(NC(=O)c2cc(C(F)(F)F)nc(-n3ccnc3)n2)c1` [compound 179, N-(3-fluoro-5-(2-methoxypropan-2-yl)phenyl)-2-(1H-imidazol-1-yl)-6-(trifluoromethyl) pyrimidine-4-carboxamide], the IC50 is 586 nM.
In the case of `CN(C)CCOc1cc(F)cc(NC(=O)c2cc(C(F)(F)F)nc(-n3ccnc3)n2)c1` [compound 181, N-(3-(2-(dimethylamino)ethoxy)-5-fluorophenyl)-2-(1H-imidazol-1-yl)-6-(trifluoromethyl) pyrimidine-4-carboxamide], the IC50 was found to be 25.4 nM.
As to `CO[C@H]1CC[C@H](NC(=O)c2cc(-c3ccncc3)nc(-n3ccnc3)n2)CC1` [compound 183, 2-(1H-imidazol-1-yl)-N-((1r,4r)-4-methoxycyclohexyl)-6-(pyridin-4-yl) pyrimidine-4-carboxamide], the IC50 turned out to be 28 nM.
Regarding `N#Cc1cc(C(=O)Nc2cccc(F)c2)nc(-n2ccnc2)n1` [compound 185, 6-cyano-N-(3-fluorophenyl)-2-(1H-imidazol-1-yl) pyrimidine-4-carboxamide], the IC50 is 2 nM.
Regarding `N#Cc1cc(C(=O)Nc2cccnc2)nc(-n2ccnc2)n1` [compound 186, 6-cyano-2-(1H-imidazol-1-yl)-N-(pyridin-3-yl)pyrimidine-4-carboxamide], the IC50 worked out at 2 nM.
Regarding `N#Cc1cc(C(=O)Nc2ccc(F)cc2)nc(-n2ccnc2)n1` [compound 187, 6-cyano-N-(4-fluorophenyl)-2-(1H-imidazol-1-yl)pyrimidine-4-carboxamide], the IC50 was determined as 2 nM.
With `N#Cc1cc(C(=O)Nc2cncnc2)nc(-n2ccnc2)n1` [compound 189, 6-cyano-2-(1H-imidazol-1-yl)-N-(pyrimidin-5-yl)pyrimidine-4-carboxamide], the IC50 came to 12 nM.
On to `O=C(Nc1ccncc1)c1cc(C(F)(F)F)cc(-n2ccnc2)n1` [compound 190, 6-(1H-imidazol-1-yl)-N-(pyridin-4-yl)-4-(trifluoromethyl) picolinamide], for which the IC50 is 2.8 nM.
As for `O=C(Nc1cccnc1)c1cc(C(F)(F)F)cc(-n2ccnc2)n1` [compound 191, 6-(1H-imidazol-1-yl)-N-(pyridin-3-yl)-4-(trifluoromethyl) picolinamide], the IC50 was 3.8 nM.
Consider `O=C(Nc1cncnc1)c1cc(C(F)(F)F)cc(-n2ccnc2)n1` [compound 192, 6-(1H-imidazol-1-yl)-N-(pyrimidin-5-yl)-4-(trifluoromethyl) picolinamide], for which the IC50 came to 6.1 nM.
In the case of `O=C(Nc1cnc(OCCO)nc1)c1cc(C(F)(F)F)nc(-n2ccnc2)n1` [compound 193, N-(2-(2-hydroxyethoxy)pyrimidin-5-yl)-2-(1H-imidazol-1-yl)-6-(trifluoromethyl) pyrimidine-4-carboxamide] it was 11 nM; in that of `O=C(O)COc1ncc(NC(=O)c2cc(C(F)(F)F)nc(-n3ccnc3)n2)cn1` [compound 194, 2-((5-(2-(1H-imidazol-1-yl)-6-(trifluoromethyl)pyrimidine-4-carboxamido)pyrimidin-2-yl)oxy) acetic acid], 30 nM.
